For the test, the target named is T1, human NaV1.6 (hNaV1.6) (Homo sapiens, UniProt Q9UQD0).
T1 construct: expressed in transfected cells; host or cells: HEK-293
T1 sequence (Q9UQD0 whole entry): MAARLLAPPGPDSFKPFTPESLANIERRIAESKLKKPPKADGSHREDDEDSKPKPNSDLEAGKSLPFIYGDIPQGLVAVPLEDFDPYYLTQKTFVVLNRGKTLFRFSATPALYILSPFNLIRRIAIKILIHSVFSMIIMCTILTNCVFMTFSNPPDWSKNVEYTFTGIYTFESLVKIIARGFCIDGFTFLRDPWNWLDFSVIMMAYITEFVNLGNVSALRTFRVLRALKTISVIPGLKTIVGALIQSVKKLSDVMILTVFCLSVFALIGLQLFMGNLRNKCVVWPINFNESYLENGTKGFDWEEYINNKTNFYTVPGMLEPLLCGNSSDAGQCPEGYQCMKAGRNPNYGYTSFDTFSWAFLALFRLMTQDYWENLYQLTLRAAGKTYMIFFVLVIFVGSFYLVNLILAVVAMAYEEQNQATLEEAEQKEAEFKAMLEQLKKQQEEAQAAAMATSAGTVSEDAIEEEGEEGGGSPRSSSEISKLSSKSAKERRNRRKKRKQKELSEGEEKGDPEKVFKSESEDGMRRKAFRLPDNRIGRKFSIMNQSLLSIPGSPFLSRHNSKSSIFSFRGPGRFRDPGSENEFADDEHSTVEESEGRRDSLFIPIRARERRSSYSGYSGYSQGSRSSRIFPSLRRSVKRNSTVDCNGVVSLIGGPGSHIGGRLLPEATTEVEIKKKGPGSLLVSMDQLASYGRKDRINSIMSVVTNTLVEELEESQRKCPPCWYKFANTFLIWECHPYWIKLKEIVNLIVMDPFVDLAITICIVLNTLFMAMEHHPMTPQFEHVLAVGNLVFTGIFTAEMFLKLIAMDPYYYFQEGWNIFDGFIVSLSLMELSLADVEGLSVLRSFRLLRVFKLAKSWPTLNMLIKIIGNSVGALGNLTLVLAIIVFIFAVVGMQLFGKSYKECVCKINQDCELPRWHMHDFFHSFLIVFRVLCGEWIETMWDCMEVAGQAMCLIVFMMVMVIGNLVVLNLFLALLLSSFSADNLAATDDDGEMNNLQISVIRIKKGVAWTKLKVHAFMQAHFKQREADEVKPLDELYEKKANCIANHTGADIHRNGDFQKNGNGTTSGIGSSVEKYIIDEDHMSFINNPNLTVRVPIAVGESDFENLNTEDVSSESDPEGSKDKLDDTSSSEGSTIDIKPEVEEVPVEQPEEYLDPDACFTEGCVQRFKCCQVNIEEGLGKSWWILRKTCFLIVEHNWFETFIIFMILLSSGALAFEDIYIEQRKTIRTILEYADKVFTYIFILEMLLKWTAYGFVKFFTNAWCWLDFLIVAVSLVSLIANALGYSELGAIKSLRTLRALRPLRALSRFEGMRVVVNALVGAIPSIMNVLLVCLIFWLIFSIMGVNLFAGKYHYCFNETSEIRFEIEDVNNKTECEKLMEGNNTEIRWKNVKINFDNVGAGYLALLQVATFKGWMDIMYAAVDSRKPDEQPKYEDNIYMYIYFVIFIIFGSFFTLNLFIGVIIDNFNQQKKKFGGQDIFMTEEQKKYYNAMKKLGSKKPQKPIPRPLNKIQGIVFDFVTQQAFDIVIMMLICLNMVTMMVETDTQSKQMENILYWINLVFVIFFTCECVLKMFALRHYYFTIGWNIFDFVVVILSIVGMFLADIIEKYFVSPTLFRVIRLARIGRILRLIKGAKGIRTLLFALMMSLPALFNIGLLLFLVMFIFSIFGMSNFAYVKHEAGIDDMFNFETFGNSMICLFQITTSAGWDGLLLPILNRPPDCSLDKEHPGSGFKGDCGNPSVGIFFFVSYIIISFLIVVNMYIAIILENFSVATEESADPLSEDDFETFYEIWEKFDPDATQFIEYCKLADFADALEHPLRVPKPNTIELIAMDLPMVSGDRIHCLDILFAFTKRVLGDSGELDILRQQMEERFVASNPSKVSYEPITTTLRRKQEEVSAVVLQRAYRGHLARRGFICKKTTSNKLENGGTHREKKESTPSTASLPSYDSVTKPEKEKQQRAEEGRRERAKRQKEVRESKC
The test is described as follows: Modulation of late sodium current (INaL), PatchXpress high throughput electrophysiology. To be noted: HEK293, HEK-293 cells expressing recombinant human NaV1.6, late current evoked by 300 nM ATX-II, read-out: NaV 1.6 Assay Data (percent inhibition of INaL at hNaV1.6). In kind it is cell-based. How it is done: Functional characterization of exemplary compounds to modulate INaL expressed by the NaV1.6 voltage-gated sodium channel was accomplished using the PatchXpress™ high throughput electrophysiology platform (Molecular Devices, Sunnyvale, CA). HEK-293 cells expressing recombinant, human NaV1.6 (hNaV1.6) were grown in DMEM/high-glucose Dulbecco's modified, 10% FBS, 2 mM sodium pyruvate, 10 mM HEPES and 400 μg/mL G418. Cells were grown to 50%-80% confluency prior to harvesting. Trypsinized cells were washed, allowed to recover for 1 hour and then resuspended in extracellular recording solution at a concentration of 1×10^6 cells/ml. The onboard liquid handling facility of the PatchXpress was used for dispensing cells and applying test compounds. NaV late currents were evoked by the application of 300 nM ATX-II. INaL was evoked by depolarizing pulses to 0 mV for 200 ms from a non-inactivating holding potential (e.g., −120 mV) at a frequency of 0.1 Hz. INaL amplitude and stability were determined by analyzing the mean current amplitude over the final 20 ms of thetest pulse. Following steady state block with exemplary compounds (e.g., as described herein), a Na+ free solution containing an impermeant cation (e.g., Choline or NDMG) was added to confirm the identify of the sodium current. Percent steady-state inhibition of INaL was calculated as: [(INaL_compound)/(INaL_control)]*100, where INaL_compound and INaL_control represent INaL recorded in the presence or absence of compound, respectively.
Broadly, the inhibition is the relative decrease from the control value, in per cent. With `COC(F)(F)c1nnc2cnc(-c3ccc(OC(F)(F)F)cc3COC3CC3)cn12` [Compound 35, 6-[2-(cyclopropoxymethyl)-4-(trifluoromethoxy)phenyl]-3-[difluoro(methoxy)methyl]-[1,2,4]triazolo[4,3-a]pyrazine], the inhibition at 1 µM was 30 to 70%.

As for `CCOC(F)(F)c1nnc2cnc(-c3ccc(OC(F)(F)F)cc3COC3CC3)cn12` [Compound 36, 6-[2-(cyclopropoxymethyl)-4-(trifluoromethoxy)phenyl]-3-[ethoxy(difluoro)methyl]-[1,2,4]triazolo[4,3-a]pyrazine], the inhibition at 1 µM is 30 to 70%.

`CCOC(F)(F)c1nnc2cnc(-c3ccc(OC4CC(F)(F)C4)cc3)cn12` [Compound 37, 6-[4-(3,3-difluorocyclobutoxy)phenyl]-3-[ethoxy(difluoro)methyl]-[1,2,4]triazolo[4,3-a]pyrazine]: the inhibition at 1 µM is above 70%.

For `CCOC(F)(F)c1nnc2cnc(-c3ccc(OC4CC(F)(F)C4)cc3C)cn12` [Compound 38, 6-[4-(3,3-difluorocyclobutoxy)-2-methyl-phenyl]-3-[ethoxy(difluoro)methyl]-[1,2,4]triazolo[4,3-a]pyrazine], the inhibition at 1 µM is above 70%.

Take `COC(F)(F)c1nnc2cnc(-c3ccc(OC4CC(F)(F)C4)cc3C)cn12` [Compound 39, 6-[4-(3,3-difluorocyclobutoxy)-2-methyl-phenyl]-3-[difluoro(methoxy)methyl]-[1,2,4]triazolo[4,3-a]pyrazine]: the inhibition at 1 µM lay within 30 to 70%.

With `COC(F)(F)c1nnc2cnc(-c3cc(F)c(OC(F)(F)F)cc3C)cn12` [Compound 40, 3-[difluoro(methoxy)methyl]-6-[5-fluoro-2-methyl-4-(trifluoromethoxy)phenyl]-[1,2,4]triazolo[4,3-a]pyrazine], the inhibition at 1 µM is above 70%.

For `CCOC(C)(C)c1nnc2cnc(-c3ccc(OC(F)(F)F)cc3C)cn12` [Compound 41, 3-(1-ethoxy-1-methyl-ethyl)-6-[2-methyl-4-(trifluoromethoxy)phenyl]-[1,2,4]triazolo[4,3-a]pyrazine], the inhibition at 1 µM was below 30%.

For `COC(F)(F)c1nnc2cnc(-c3cc(C)c(OC(F)(F)F)cc3F)cn12` [Compound 42, 3-[difluoro(methoxy)methyl]-6-[2-fluoro-5-methyl-4-(trifluoromethoxy)phenyl]-[1,2,4]triazolo[4,3-a]pyrazine], the inhibition at 1 µM is above 70%.

As for `COC(F)(F)c1nnc2cnc(-c3c(C)cc(OC(F)(F)F)cc3F)cn12` [Compound 43, 3-[difluoro(methoxy)methyl]-6-[2-fluoro-6-methyl-4-(trifluoromethoxy)phenyl]-[1,2,4]triazolo[4,3-a]pyrazine], the inhibition at 1 µM lay within 30 to 70%.

Values taken from patent US12479844B2, “Ion channel modulators” (Praxis Precision Medicines, Inc., priority 2018, dated 2025).
